Assay results published in article PMC6081459, “Pathogen-derived HLA-E bound epitopes reveal broad primary anchor pocket tolerability and conformationally malleable peptide binding” (Nature Communications, 2018).

What was measured:
[1] = tested on: Mamu-E restricted CD8^+ T cells; assay type: cell-based, rhesus macaques (Macaca mulatta)
HLA-E*01:03 = HLA-E*01:03 (Homo sapiens, UniProt P13747); experiment: Single-chain peptide-β2m-HC construct, HLA-E surface expression in transfected 293T cells; assay type: cell-based; conditions: peptide encoded in single-chain peptide-β2M-HC construct, 24 h after transfection, flow cytometry, scaled to index position 2 residue, n = 4

Sequence: RFPAKAPLL [Mtb44*P2-Phe]
- Magnitude of CD8+ T cell responses to Mtb44 and position 2 variants [1]: responses of similar magnitude
- Relative HLA-E surface expression (MFI, 3D12 antibody) (HLA-E*01:03): highest relative levels of HLA-E surface expression

Sequence: RLPAKAPLL [Mtb44]
- Magnitude of CD8+ T cell responses to Mtb44 and position 2 variants [1]: responses of similar magnitude

Sequence: RQPAKAPLL [Mtb44*P2-Gln]
- Magnitude of CD8+ T cell responses to Mtb44 and position 2 variants [1]: responses of similar magnitude
